Experiments:
human full-length MKNK1 [1] = biological target: T1, human full-length MKNK1 (Homo sapiens (Human), UniProt Q9BUB5, T344D); experiment: MKNK1 kinase assay (TR-FRET, 10 μM ATP); format: biochemical; settings: 15 min preincubation, GST-MKNK1 (T344D)
Description: MKNK1-inhibitory activity of compounds of the present invention was quantified employing the MKNK1 TR-FRET assay as described in the following paragraphs. […] As substrate for the kinase reaction the biotinylated peptide biotin-Ahx-[…]
For the assay 50 nL of a 100 fold concentrated solution of the test compound in DMSO was pipetted into a black low volume 384 well microtiter plate (Greiner Bio-One, Frickenhausen, Germany), 2 μL of a solution of MKNK1 in aqueous assay buffer [50 mM HEPES pH 7.5, 5 mM magnesium chloride, 1.0 mM dithiothreitol, 0.005% (v/v) Nonidet-P40 (Sigma)] was added and the mixture was incubated for 15 min at 22° C. to allow pre-binding of the test compounds to the enzyme before the start of the kinase reaction. […] The concentration of MKNK1 was adjusted depending of the activity of the enzyme lot and was chosen appropriate to have the assay in the linear range, typical concentrations were in the range of 0.05 μg/mi. The reaction was stopped by the addition of 5 μL of a solution of TR-FRET detection reagents (5 nM streptavidine-XL665 [Cisbio Bioassays, Codolet, France] and 1 nM anti-ribosomal protein […] (pSer236)-antibody from Invitrogen [#44921G] and 1 nM LANCE EU-W1024 labeled ProteinG [Perkin-Elmer, product no. AD0071]) in an aqueous EDTA-solution (100 mM EDTA, 0.1% (w/v) bovine serum albumin in 50 mM HEPES pH 7.5).
(§1) The resulting mixture was incubated for 1 h at 22° C. to allow the formation of complex between the phosphorylated biotinylated peptide and the detection reagents. Subsequently the amount of phosphorylated substrate was evaluated by measurement of the resonance energy transfer from the Eu-chelate to the streptavidine-XL.

human full-length MKNK1 [2] = biological target: T1, human full-length MKNK1; experiment: MKNK1 kinase high ATP assay (TR-FRET, 2 mM ATP); format: biochemical; settings: 15 min preincubation, GST-MKNK1 (T344D)
Description: MKNK1-inhibitory activity at high ATP of compounds of the present invention after their preincubation with MKNK1 was quantified employing the TR-FRET-based MKNK1 high ATP assay as described in the following paragraphs.
As substrate for the kinase reaction the biotinylated peptide biotin-Ahx-[…]
For the assay 50 nL of a 100 fold concentrated solution of the test compound in DMSO was pipetted into a black low volume 384 well microtiter plate (Greiner Bio-One, Frickenhausen, Germany), 2 μL of a solution of MKNK1 in aqueous assay buffer [50 mM HEPES pH 7.5, 5 mM magnesium chloride, 1.0 mM dithiothreitol, 0.005% (v/v) Nonidet-P40 (Sigma)] was added and the mixture was incubated for 15 min at 22° C. to allow pre-binding of the test compounds to the enzyme before the start of the kinase reaction. Then the kinase reaction was started by the addition of 3 μL of a solution of adenosine-tri-phosphate (ATP, 3.3 mM=>final conc. in the 5 μL assay volume is 2 mM) and substrate (0.1 μM=>final conc. in the 5 μL assay volume is 0.06 μM) in assay buffer and the resulting mixture was incubated for a reaction time of 30 min at 22° C. The concentration of MKNK1 was adjusted depending of the activity of the enzyme lot and was chosen appropriate to have the assay in the linear range, typical concentrations were in the range of 0.003 μg/mL. The reaction was stopped by the addition of 5 μL of a solution of TR-FRET detection reagents (5 nM streptavidine-XL665 [Cisbio Bioassays, Codolet, France] and 1 nM anti-ribosomal protein S6 (pSer236)-antibody from Invitrogen [#44921G] and 1 nM LANCE EU-W1024 labeled ProteinG [Perkin-Elmer, product no. AD0071]) in an aqueous EDTA-solution (100 mM EDTA, 0.1% (w/v) bovine serum albumin in 50 mM HEPES pH 7.5).
as §1

T1 sequence (Q9BUB5 other isoform, or with tags, fused parts or gaps T344D): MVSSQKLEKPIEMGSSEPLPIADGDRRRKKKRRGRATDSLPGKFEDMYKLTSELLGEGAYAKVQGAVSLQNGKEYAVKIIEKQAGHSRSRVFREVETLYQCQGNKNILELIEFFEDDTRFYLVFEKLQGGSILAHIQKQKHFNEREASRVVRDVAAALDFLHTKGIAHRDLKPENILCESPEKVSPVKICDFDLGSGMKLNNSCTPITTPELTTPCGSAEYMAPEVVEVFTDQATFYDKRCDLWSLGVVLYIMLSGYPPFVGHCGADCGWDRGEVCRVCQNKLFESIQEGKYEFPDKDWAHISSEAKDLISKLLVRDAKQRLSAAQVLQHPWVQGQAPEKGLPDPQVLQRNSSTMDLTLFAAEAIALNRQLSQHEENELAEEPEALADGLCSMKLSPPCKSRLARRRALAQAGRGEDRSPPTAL

| Compound | IC50 (human full-length MKNK1 [1]) [nM] | IC50 (human full-length MKNK1 [2]) [nM] |
| --- | --- | --- |
| CN(C)CCN(C)C(=O)c1ccc2ncc(-c3cc4c(N5CCOCC5)nccc4o3)n2n1 [Example 3, N-[2-(dimethylamino)ethyl]-N-methyl-3-[4-(morpholin-4-yl)furo[3,2-c]pyridin-2-yl]imidazo[1,2-b]pyridazine-6-carboxamide] | 88 | 140 |
| CN1CCN(C(=O)c2ccc3ncc(-c4cc5c(N6CCOCC6)nccc5o4)n3n2)CC1 [Example 4, (4-Methylpiperazin-1-yl){3-[4-(morpholin-4-yl)furo[3,2-c]pyridin-2-yl]imidazo-[1,2-b]pyridazin-6-yl}methanone] | 110 | 280 |
| CN(C)CCCNC(=O)c1ccc2ncc(-c3cc4ccccc4o3)n2n1 [Example 10, 3-(1-Benzofuran-2-yl)-N-[3-(dimethylamino)propyl]imidazo[1,2-b]pyridazine-6-carboxamide] | 3.3 | 7.9 |
| C[C@H](CO)NC(=O)c1ccc2ncc(-c3cc4ccccc4o3)n2n1 [Example 11, 3-(1-Benzofuran-2-yl)-N-[(2R)-1-hydroxypropan-2-yl]imidazo[1,2-b]pyridazine-6-carboxamide] | 4.1 | 8.8 |
| COCCCNC(=O)c1ccc2ncc(-c3cc4ccccc4o3)n2n1 [Example 12, 3-(1-Benzofuran-2-yl)-N-(3-methoxypropyl)imidazo[1,2-b]pyridazine-6-carboxamide] | 4.9 | 9.5 |
| CC(C)[C@H](CO)NC(=O)c1ccc2ncc(-c3cc4ccccc4o3)n2n1 [Example 13, 3-(1-Benzofuran-2-yl)-N-[(2R)-1-hydroxy-3-methylbutan-2-yl]imidazo[1,2-b]-pyridazine-6-carboxamide] | 6.8 | 12 |
| O=C(NCc1ccccc1)c1ccc2ncc(-c3cc4ccccc4o3)n2n1 [Example 14, 3-(1-Benzofuran-2-yl)-N-benzylimidazo[1,2-b]pyridazine-6-carboxamide] | 5.2 | 12 |
| COCCNC(=O)c1ccc2ncc(-c3cc4ccccc4o3)n2n1 [Example 15, 3-(1-Benzofuran-2-yl)-N-(2-methoxyethyl)imidazo[1,2-b]pyridazine-6-carboxamide] | 8 | 15 |
| CN(Cc1ccccc1)C(=O)c1ccc2ncc(-c3cc4ccccc4o3)n2n1 [Example 16, 3-(1-Benzofuran-2-yl)-N-benzyl-N-methylimidazo[1,2-b]pyridazine-6-carboxamide] | 8.8 | 23 |
| CN(C)CCNC(=O)c1ccc2ncc(-c3cc4ccccc4o3)n2n1 [Example 17, 3-(1-Benzofuran-2-yl)-N-[2-(dimethylamino)ethyl]imidazo[1,2-b]pyridazine-6-carboxamide] | 1.7 | 34 |
| CC(C)[C@@H](CO)NC(=O)c1ccc2ncc(-c3cc4ccccc4o3)n2n1 [Example 18, 3-(1-Benzofuran-2-yl)-N-[(2S)-1-hydroxy-3-methylbutan-2-yl]imidazo[1,2-b]-pyridazine-6-carboxamide] | 1.3 | 42 |
